Laboratory results: PubChem BioAssay (NCI)
Several values for one entry are separate records, joined by “and”; a condition that tells them apart may be missing. Equal entries are not always repeated.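 A five-concentration, 48-hour dose response in 96-well plates underlies each endpoint, interpolated linearly between surrounding concentrations. Here, GI50 denotes the concentration required for 50% inhibition of growth. The concentration for full growth arrest is given as TGI.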

Tests used:
Assay in all cases: inhibition of tumour cell growth, NCI panel, 48 h
786-0 renal = system: 786-0 renal
COLO 205 colon = system: COLO 205 colon
OVCAR-5 ovarian = system: OVCAR-5 ovarian
EKVX NSCLC = system: EKVX NSCLC
RXF 393 renal = system: RXF 393 renal
HT29 colon = system: HT29 colon
SF-295 CNS = system: SF-295 CNS
NCI-H460 lung = system: NCI-H460 lung
KM12 colon = system: KM12 colon
ACHN renal = system: ACHN renal

Structure (SMILES)	GI50 (786-0 renal) [µM]	TGI (786-0 renal)	GI50 (COLO 205 colon) [µM]	TGI (COLO 205 colon)	GI50 (OVCAR-5 ovarian) [µM]	TGI (OVCAR-5 ovarian)	GI50 (EKVX NSCLC) [µM]	TGI (EKVX NSCLC)	GI50 (RXF 393 renal) [µM]	TGI (RXF 393 renal) [µM]	GI50 (HT29 colon) [µM]	TGI (HT29 colon)	GI50 (SF-295 CNS) [µM]	TGI (SF-295 CNS)	GI50 (NCI-H460 lung) [µM]	TGI (NCI-H460 lung)	GI50 (KM12 colon) [µM]	TGI (KM12 colon)	GI50 (ACHN renal) [µM]	TGI (ACHN renal)
O=C(/C=C/c1ccc(C(F)(F)F)cc1)Nc1ccc(C=C2c3ccccc3C(=O)c3ccccc32)cc1	13.6	> 100 µM	6.18	38.4 µM	43.6	> 100 µM	3.37	> 100 µM	8.26	60.4	4.56	> 100 µM	4.24	> 100 µM	5.48	> 100 µM	2.33	40.6 µM	19.4	> 100 µM
CCc1ccccc1NC(=O)/C=C/c1ccccc1	–	> 100 µM	–	> 100 µM	–	> 100 µM	–	> 100 µM	–	–	–	> 100 µM	–	> 100 µM	–	> 100 µM	–	> 100 µM	–	> 100 µM
O=C(/C=C/c1ccc(O)c(O)c1)NCc1c[nH]c2ccccc12	39.7	> 100 µM	49	> 100 µM	> 100	> 100 µM	41.5	> 100 µM	> 100	> 100	47.2	> 100 µM	62.4	> 100 µM	50.1	> 100 µM	66.7	> 100 µM	45.8	> 100 µM
NS(=O)(=O)c1ccc(N2N=C3c4ccccc4CC3C2c2cccs2)cc1 (configuration not stated)	17.6	41.7 µM	58.9	> 100 µM	26.6	> 100 µM	15.9	52.5 µM	20.6	62.6	26.1	> 100 µM	16.2	34.4 µM	> 100	> 100 µM	15.7	57.2 µM	19.8	36.3 µM
O=c1cc(-c2ccc(O)cc2)oc2cc(O[C@@H]3O[C@H](CO)[C@@H](O)[C@H](O)[C@H]3O)cc(O)c12	–	> 100 µM	–	> 100 µM	–	> 100 µM	–	> 100 µM	–	–	–	> 100 µM	–	> 100 µM	–	> 100 µM	–	> 100 µM	–	> 100 µM
CCc1cccc(C)c1N1C(=O)C(=O)C(c2nc3ccccc3o2)C(=O)C1=O	–	> 100 µM	–	> 100 µM	–	> 100 µM	–	> 100 µM	–	–	–	> 100 µM	–	> 100 µM	–	> 100 µM	–	> 100 µM	–	> 100 µM
Cc1cc(Cl)ccc1OCC(=O)Nc1nc(N)nc(N)n1	–	> 100 µM	–	> 100 µM	–	> 100 µM	–	> 100 µM	–	> 100	–	> 100 µM	–	> 100 µM	–	> 100 µM	–	> 100 µM	–	> 100 µM
COC(=O)C(CCC(=O)CCl)N1C(=O)c2ccccc2C1=O (configuration not stated)	–	15.2 µM	–	40.3 µM	–	28.4 µM	–	35.3 µM	–	6.45	–	27.6 µM	–	35.2 µM	–	29.5 µM	–	36.9 µM	–	13.9 µM
O=c1c2cc(-c3ccccc3)sc2ncn1Cc1ccc(Cl)c(Cl)c1	14.2	43.3 µM	> 100	> 100 µM	5.46	> 100 µM	16.3	> 100 µM	17.1	48.2	67.7	> 100 µM	12.3	30.6 µM	12.1	> 100 µM	0.32	6.38 µM	22.7	75.6 µM
Cc1cccc2c1c1ccc3c(c1n2C)C(=O)C=CC3=O	–	3.64 µM	–	6.26 µM	–	29.5 µM	–	38.2 µM	–	7.86	–	14 µM	–	30.9 µM	–	37.8 µM	–	28.6 µM	–	18 µM
CCOC(=O)CCC1(C(=O)OCC)CCCC1=O (configuration not stated)	–	> 100 µM	–	> 100 µM	–	> 100 µM	–	> 100 µM	–	> 100	–	> 100 µM	–	> 100 µM	–	> 100 µM	–	> 100 µM	–	> 100 µM
Cc1cc(C)nc(/C(=N\NC(N)=O)C(=O)Nc2nc3ccc(C)cc3s2)c1	–	> 100 µM	–	> 73.5 µM	–	> 100 µM	–	> 100 µM	–	> 100	–	> 100 µM	–	> 100 µM	–	> 100 µM	–	> 100 µM	–	> 100 µM
CC1=C2C(=CC(C)(C)[C@@H]2O)C(=O)[C@](C)(O)C12CC2	–	0.0532 µM and 0.067 µM	0.0209	0.0989 µM and 0.0977 µM	–	0.0954 µM and 0.0374 µM	0.0409	0.17 µM and 0.221 µM	–	0.0199	0.00623	0.208 µM and 0.0713 µM	0.026	0.11 µM and 0.0503 µM	0.00575	0.0437 µM and < 0.0311 µM	0.0205	0.123 µM and 0.411 µM	0.00796	0.0625 µM and 0.114 µM
COC(=O)CCC12CCC(=O)C1[C@@H](C(=O)OC)C[C@H]2C(=O)OC (some centres not stated)	–	> 100 µM	–	> 100 µM	–	> 100 µM	–	> 100 µM	–	> 100	–	> 100 µM	–	> 100 µM	–	> 100 µM	–	> 100 µM	–	> 100 µM
CN1CCN(Cc2ccc(NC(=O)c3cncc(C#Cc4cnc(N)cc4C#N)c3)cc2C(F)(F)F)CC1	4.38	16 µM	1.39	12.8 µM	2.76	14.2 µM	3.4	14.7 µM	1.45	5.55	1.04	15.5 µM	3.54	15.3 µM	2.66	12.7 µM	0.0632	13.3 µM	1.57	9.39 µM
CN(C)CCNC(=O)c1ccc(-c2nc3ccc4[nH]ncc4c3c3c2C2CCC3C2)cc1 (configuration not stated)	0.882	4.92 µM	0.569	4.19 µM	3.01	9.85 µM	1.72	6.91 µM	0.267	1.18	1.84	13 µM	2.01	5.39 µM	1.56	4.79 µM	0.534	3.36 µM	0.564	6.91 µM
Cc1ccc(Oc2ccccc2N)cc1	–	86.8 µM	–	19.2 µM	–	> 100 µM	–	> 100 µM	–	> 100	–	> 100 µM	–	> 100 µM	–	> 100 µM	–	> 100 µM	–	–

Structure (SMILES)	GI50 (786-0 renal) [µM]	TGI (786-0 renal)	GI50 (COLO 205 colon) [µM]	TGI (COLO 205 colon)	GI50 (OVCAR-5 ovarian) [µM]	TGI (OVCAR-5 ovarian)	GI50 (EKVX NSCLC) [µM]	TGI (EKVX NSCLC)	GI50 (RXF 393 renal) [µM]	TGI (RXF 393 renal) [µM]	GI50 (HT29 colon) [µM]	TGI (HT29 colon)	GI50 (SF-295 CNS) [µM]	TGI (SF-295 CNS)	GI50 (NCI-H460 lung) [µM]	TGI (NCI-H460 lung)	GI50 (KM12 colon) [µM]	TGI (KM12 colon)	GI50 (ACHN renal) [µM]	TGI (ACHN renal)
COc1ccc(OC(C(=O)O)C(C)C)c2c1CCCC2=O (configuration not stated)	–	> 100 µM	–	> 100 µM	–	> 100 µM	–	> 100 µM	–	–	–	> 100 µM	–	> 100 µM	–	> 100 µM	–	> 100 µM	–	> 100 µM
CCCCCN(CCCCC)CC(O)c1cc(Cl)ccc1OC (configuration not stated)	13	27.4 µM	5.11	18.6 µM	10.4	23.8 µM	6.39	22.3 µM	2.58	7.87	0.683	12 µM	1.38	12.6 µM	4.7	18 µM	7.35	21.3 µM	10.5	24.9 µM
Cc1c(C(=O)/C=C/C=C/c2ccccc2)[n+](=O)c2ccccc2n1[O-]	–	52.7 µM	–	> 100 µM	–	> 100 µM	–	> 100 µM	–	–	–	–	–	> 100 µM	–	61.5 µM	–	43.7 µM	–	60.8 µM
O=[N+]([O-])c1cccc(-c2nc(-c3ccccc3)c(-c3ccccc3)[nH]2)c1	–	> 100 µM	–	> 100 µM	–	> 100 µM	–	> 100 µM	–	> 100	–	–	–	> 100 µM	–	> 100 µM	–	–	–	–
COC(=O)c1cc2c(cc1Cl)SC1=NN(C)S(=O)N1S2(=O)=O (configuration not stated)	> 100	> 100 µM	> 100	> 100 µM	> 100	> 100 µM	> 100	> 100 µM	–	–	> 100	> 100 µM	> 100	> 100 µM	> 100	> 100 µM	> 100	> 100 µM	> 100	> 100 µM
CN1CCN(CCOc2ccc(-c3cnc4c(-c5cccc(F)c5)cnn4c3)cc2)CC1	1.79	3.42 µM	–	–	1.79	3.55 µM	1.72	3.45 µM	1.66	3.22	1.51	3.32 µM	1.71	3.27 µM	1.72	3.19 µM	1.5	3.06 µM	1.66	3.02 µM
Cc1cc(C)c2c(n1)sc1c(N)ncnc12	> 25	> 25 µM	17	> 25 µM	> 25	> 25 µM	–	–	8.72	> 25	16.2	> 25 µM	> 25	> 25 µM	> 25	> 25 µM	> 22.3	> 25 µM	14.2	> 25 µM
NNc1cnn(-c2ccccc2)c(=O)c1Cl	–	> 100 µM	–	> 100 µM	–	> 100 µM	–	–	–	> 100	–	> 100 µM	–	> 100 µM	–	> 100 µM	–	> 100 µM	–	> 100 µM
CNc1ccc2ncccc2c1[N+](=O)[O-]	–	> 100 µM	–	–	–	> 100 µM	–	> 100 µM	–	> 100	–	> 100 µM	–	> 100 µM	–	> 100 µM	–	> 100 µM	–	> 100 µM
CC[C@@]1(OC(=O)CN)C(=O)OCc2c1cc1n(c2=O)Cc2c-1nc1cc3c(cc1c2CCl)OCO3	0.0102	> 33.8 µM	0.761	3.1 µM	1.03	13 µM	1.84	26.5 µM	–	–	0.052	1.22 µM	< 0.01	11.2 µM	< 0.01	4.44 µM	0.12	0.39 µM	< 0.01	0.244 µM
O=C(O)c1cc(=O)c2c([nH]c3ccccc32)s1	–	> 100 µM	–	> 100 µM	–	> 100 µM	–	> 100 µM	–	> 100	–	–	–	> 100 µM	–	> 100 µM	–	> 100 µM	–	> 100 µM
Clc1cccc(N2CCN(CCCN3CCc4c([nH]c5ccccc45)C3c3cccnc3)CC2)c1 (configuration not stated)	7.08	20.2 µM	5.42	21.9 µM	8.66	23.9 µM	–	35.1 µM	11.5	31	3.18	14.2 µM	–	–	7.85	23.7 µM	–	–	–	31.3 µM
O=C1C2=C(C(=O)c3cnccc31)C1C=CC2CC1 (configuration not stated)	1.95	3.37 µM	2.32	4.62 µM	1.93	3.71 µM	1.92	4.13 µM	1.51	2.85	2.58	5.7 µM	5.36	12.4 µM	8.48	21.7 µM	2.65	6.66 µM	–	–
COC(=O)C12CC(NC(=O)c3csc([C@@H](C[C@H](C(C)C)N(C)C(=O)[C@@H](NC(=O)[C@H]4CCCCN4C)C4CC4)OC(C)=O)n3)(C1)C2	0.0394	> 16.7 µM	0.00972	0.201 µM	0.135	> 16.7 µM	0.0696	> 16.7 µM	–	–	0.0134	> 16.7 µM	0.0422	> 16.7 µM	0.0472	> 16.7 µM	0.0363	> 16.7 µM	0.123	> 16.7 µM
CCOC(=O)c1c(C)n(Cc2ccc(Cl)cc2Cl)c2c1cc1oc(=O)c(=O)n3cnc2c13	18.3	34.9 µM	17	33.3 µM	–	–	23.2	43.3 µM	4.16	15.3	11	37.8 µM	21.1	43.1 µM	7.78	20 µM	11.6	26 µM	14.4	27.5 µM
Cc1cc(Nc2nc(C(=O)Nc3ccccc3)nc3ccccc23)n[nH]1	10.1	> 25 µM	14.4	> 25 µM	> 25	> 25 µM	–	–	3.66	> 25	17.6	> 25 µM	7.82	> 25 µM	2.29	> 25 µM	3.68	> 25 µM	2.87	> 25 µM
